Columns and labels:
Type IV collagenase = Type IV collagenase inhibiting activity (fluorescence labeled gelatin); type: biochemical, human; details: from HT-1080 cell; 6 hours at 37° C., pH 7.5
Experimental: (3) Measuring Method of Type IV Collagenase Inhibiting Activity
Inhibiting of type IV collagenase refined from the culture supernatant of human […] (HT-1080 cell) was measured by using fluorescence labeled gelatin, according to the method proposed by Haris et al. [Haris, E. D., and Krane, S. M., Biochim. Biophys. Acta., 258, 566-576 (1972)].
The enzyme was activated by incubating for 22 hours at 37° C. in 1 mM mercury (II) p-aminophenylacetate. The test compound was used by dissolving in dimethyl sulfoxide. The enzyme reaction was started by adding the activated enzyme in 50 mM TRIS-hydrochloric acid (pH 7.5), 10 mM CaCl2, 0.01% (w/v) "Bridge 35" (tradename, available from Wako Pure Chemical Industries, Ltd.), 0.1% (v/v) dimethyl sulfoxide solution containing the test compound and 0.1% (w/v) of fluorescence labeled gelatin as substrate. The reaction was conducted for 6 hours at 37° C., and stopped by adding 30% (w/v) trichloroacetic acid solution by 1/2 amount. After letting stand at 4° C. for 30 minutes, by centrifugal separation for 10 minutes at 10000 rpm, 4° C., the undigested substrate was precipitated. To 1 part by volume of the obtained supernatant, 50 parts by volume of 0.3M phosphate buffer (pH 8.5) was added, and the fluorescence intensity was measured at 520 nm (Em)/495 nm (Ex), and the undigested amount was quantitatively determined.
The enzyme inhibiting activity was expressed by the concentration (IC50) of the test compound wherein the enzyme activity of known amount was blocked till 50%.

Stromelysin = biological target: T1, Stromelysin (Mus musculus, UniProt P28862); test: Stromelysin inhibiting activity (fluorescence labeled casein); type: biochemical; details: from mouse colon cancer cell (Colon 26); 3 hours at 37° C., pH 7.5
T1 construct: endogenous in cells; host or cells: Colon 26 (mouse colon cancer cells), culture supernatant, purified
T1 sequence (P28862 100-477): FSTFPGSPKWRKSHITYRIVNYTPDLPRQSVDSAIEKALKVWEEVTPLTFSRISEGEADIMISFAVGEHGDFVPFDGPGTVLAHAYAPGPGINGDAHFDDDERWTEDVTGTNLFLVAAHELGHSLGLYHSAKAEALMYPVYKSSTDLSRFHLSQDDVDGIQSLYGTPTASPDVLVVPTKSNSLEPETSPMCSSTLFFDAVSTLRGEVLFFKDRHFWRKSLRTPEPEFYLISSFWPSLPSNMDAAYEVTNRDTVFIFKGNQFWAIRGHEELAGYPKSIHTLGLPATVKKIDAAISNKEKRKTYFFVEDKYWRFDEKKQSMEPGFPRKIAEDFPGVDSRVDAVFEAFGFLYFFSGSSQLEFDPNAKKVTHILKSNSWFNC
Experimental: (1) Measuring Method of Stromelysin Inhibiting Activity
Inhibiting of Stromelysin refined from the culture supernatant of mouse colon cancer cell (Colon 26 cell) was measured by using fluorescence labeled casein, according to the method proposed by Miyazaki et al. (J. Biochem., 108, 537-543, 1990), and S. S. Twining [Fed. Proc., 42, 1951 (1984)].
The enzyme was activated by incubating for 2 hours at 37° C. in 1 mM mercury (II) p-aminophenylacetate. The test compound was used by dissolving in dimethyl sulfoxide. The enzyme reaction was started by adding the activated enzyme in a solution of 50 mM TRIS-hydrochloric acid (pH 7.5), 10 mM CaCl2, and 0.1% (v/v) dimethyl sulfoxide containing the test compound and 0.25% (w/v) of fluorescence labeled casein as substrate. The reaction was conducted for 3 hours at 37° C., and stopped by adding an equivalent amount of 5% (w/v) trichloroacetic acid solution. Afterwards, by centrifugal separation for 15 minutes at 3000 rpm, 4° C., the undigested substrate was precipitated, and to 1 part by volume of the obtained supernatant, 4 parts by volume of 0.3M phosphate buffer (pH 8.5) was added, and the fluorescence intensity was measured at 520 nm (Em)/495 nm (Ex), and the decomposition volume was quantitatively determined.
(§1) The enzyme inhibiting activity was expressed by the concentration (IC50) of the test compound wherein the enzyme activity of known amount was inhibited till 50%.

Interstitial collagenase = biological target: T2, Interstitial collagenase (Homo sapiens, UniProt P03956); test: Interstitial collagenase inhibiting activity (fluorescence labeled collagen); type: biochemical; details: from human fibroblast cell (Detroit 551); 2 hours at 35° C., pH 7.5
T2 construct: endogenous in cells; host or cells: Detroit 551 (human fibroblasts), culture supernatant, purified
T2 sequence (P03956 100-469): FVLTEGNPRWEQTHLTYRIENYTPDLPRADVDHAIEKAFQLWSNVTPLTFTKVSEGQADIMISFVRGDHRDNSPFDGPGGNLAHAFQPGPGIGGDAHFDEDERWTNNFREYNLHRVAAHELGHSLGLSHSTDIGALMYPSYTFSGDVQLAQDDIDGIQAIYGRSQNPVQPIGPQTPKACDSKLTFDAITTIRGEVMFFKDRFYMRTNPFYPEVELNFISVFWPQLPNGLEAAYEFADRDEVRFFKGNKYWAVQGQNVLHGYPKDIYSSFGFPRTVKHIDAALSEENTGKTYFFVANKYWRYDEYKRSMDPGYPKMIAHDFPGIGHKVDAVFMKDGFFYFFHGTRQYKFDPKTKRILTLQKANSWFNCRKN
Experimental: (2) Measuring Method of Interstitial Collagenase Inhibiting Activity
Inhibiting of interstitial collagenase refined from the culture supernatant of human fibroblast cell (Detroit 551 cell) was measured by using fluorescence labeled collagen, according to the method proposed by Nagai et al. [Inflammation, 4 (2), 123 (1984)].
The enzyme was activated by incubating for 3 hours at 37° C. in 1 mM mercury (II) p-aminophenylacetate. The test compound was used by dissolving in dimethyl sulfoxide. The enzyme reaction was started by adding the activated enzyme in 50 mM TRIS-hydrochloric acid (pH 7.5), 0.2M NaCl, 5 mM CaCl2, 0.02% (w/v) NaN3, 2.5 mM acetic acid, and 0.1% (v/v) dimethyl sulfoxide solution containing the test compound and 0.025% (w/v) of fluorescence labeled collagen as substrate. The reaction was conducted for 2 hours at 35° C., and stopped by adding ice-chilled 80 mM O-phenanthroline, 50% (v/v) ethanol solution by 1/20 amount. To this, moreover, an equivalent volume of 50 mM TRIS-hydrochloric acid (pH 7.5), 0.2M NaCl, 5 mM CaCl2, 0.02% (w/v) NaN3 solution was added to incubate further for 1 hour at 35° C. to degenerate specifically only the digestion product, and the digestion product was extracted by adding 0.17M TRIS-hydrochloric acid (pH 9.5), 0.67M NaCl solution including an equivalent amount of 70% (v/v) ethanol, and afterwards, by centrifugal separation for 15 minutes at 3000 rpm, 4° C., the undigested substrate was precipitated. The fluorescence intensity of the obtained supernatant was measured at 520 nm (Em)/495 nm (Ex), and the decomposition volume was quantitatively determined.
as §1

[1] = system: Colon 26 PMF15 tumor cells; test: Lung metastasis of Colon 26 PMF15 tumor in mice after oral administration; type: in vivo, male CDF1 mice; details: Test I; for Number of lung metastastic nodules mean ± S.E.: day 28; for Ratio to control group: lung nodules
Experimental: Experiment was carried out according to a method of Motoyama et al. [Gan To Kagaku Ryoho (JAPAN), 21(8): pages 1209-1214, 1994]. That is, Colon 26 PMF15 tumor cells (5×10^5 /mouse) were inoculated into the left hind footpad of male CDF1 mice (one group comprising 7 mice). After 14 days from inoculation, the left hind-limb was cut from the upper part of the articulatio geniculum under pentobarbital anesthetization using a cautery knife to remove the primary tumor. After 28 days from inoculation,the lung was removed and the number of metastastic nodules on the surface thereof were measured, thereby taking it as an index of the effect. The test compound was orally administered one time a day until 27 days have passed since the day following the day when tumor cells were inoculated, excluding the day when the primary tumor was removed.

Compound	IC50 (Type IV collagenase) [nM]	IC50 (Stromelysin) [nM]	IC50 (Interstitial collagenase) [nM]	further results
1-(4-carboxybenzyl)-3(R or S)-[4-(N-hydroxyamino)-2R-isobutylsuccinyl]amino-3,4-dihydrocarbostyril [Example 30]	240			
3S- [4-(N-hydroxyamino)-2R-isobutyl-3S-methylsuccinyl]amino-3,4-dihydrocarbostyril [Example 17]	340			
3S- [4-(N-hydroxyamino)-2R-isobutyl-succinyl ]amino-1-isobutoxy-3,4-dihydrocarbostyril [Example 21]	340			
3S-[4-(N-hydroxyamino)-2R-isobutyl-3S-methylsuccinyl]amino-1-(4-methoxybenzyl)-3,4dihydrocarbostyril [Example 31]	1400			
CC(C)C[C@@H](C(=O)N[C@H]1Cc2ccccc2NC1=O)C(CN1C(=O)c2ccccc2C1=O)C(=O)NO (single isomer, unassigned) [Test compound 7, 3S-[4-(N-hydroxyamino)-2R-isobutyl-3(R or S)-phthalimidomethylsuccinyl]amino-3,4-dihydrocarbostyril]	18	23		
CC(C)C[C@H](CC(=O)NO)C(=O)N[C@H]1Cc2ccccc2NC1=O [Test compound 1, 3S-[4-(N-hydroxyamino)-2R-isobutylsuccinyl]amino-3,4-dihydrocarbostyril]	1700	570	210	
COc1ccc2c(c1)NC(=O)[C@@H](NC(=O)[C@@H](CC(=O)NO)CC(C)C)C2 [Test compound 2, 3S-[4-(N-hydroxyamino)-2R-isobutylsuccinyl]amino-7-methoxy-3,4-dihydrocarbostyril]	510	490	450	
CON1C(=O)[C@@H](NC(=O)[C@@H](CC(=O)NO)CC(C)C)Cc2ccccc21 [Test compound 3, 3S-[4-(N-hydroxyamino)-2R-isobutylsuccinyl]amino-1-methoxy-3,4-dihydrocarbostyril]	530	1300	690	Number of lung metastastic nodules mean ± S.E. ([1]; 25 mg/kg/day oral): 19.0 ± 3.7; Number of lung metastastic nodules mean ± S.E. ([1]; 50 mg/kg/day oral): 18.7 ± 6.0; Number of lung metastastic nodules mean ± S.E. ([1]; 100 mg/kg/day oral): 13.0 ± 5.2; Number of lung metastastic nodules mean ± S.E. ([1]; 200 mg/kg/day oral): 9.2 ± 2.8; Ratio to control group ([1]; 25 mg/kg/day oral): 90%; Ratio to control group ([1]; 50 mg/kg/day oral): 88%; Ratio to control group ([1]; 100 mg/kg/day oral): 61%; Ratio to control group ([1]; 200 mg/kg/day oral): 43%
CC(=O)SC[C@H](C(=O)NO)[C@@H](CC(C)C)C(=O)N[C@H]1Cc2ccccc2NC1=O [Test compound 4, 3S-[4-(N-hydroxyamino)-2R-isobutyl-3S-acetylthiomethylsuccinyl]amino-3,4-dihydrocarbostyril]	1900	850	2900	
CC(C)C[C@@H](C(=O)N[C@H]1Cc2ccccc2NC1=O)[C@H](CS)C(=O)NO [Test compound 5, 3S-[4-(N-hydroxyamino)-2R-isobutyl-3S-mercaptomethylsuccinyl]amino-3,4-dihydrocarbostyril]	540	150	360	
CC(C)C[C@@H](C(=O)N[C@H]1Cc2ccccc2NC1=O)[C@H](CSc1cccs1)C(=O)NO [Test compound 6, 3S-[4-(N-hydroxyamino)-2R-isobutyl-3S-(2-thienylthiomethyl)succinyl]amino-3,4-dihydrocarbostyril]	58	27	2.4	
COCOCCN1C(=O)[C@@H](NC(=O)[C@@H](CC(=O)NO)CC(C)C)Cc2ccccc21 [Test compound 19, 3S-[4-(N-hydroxyamino)-2R-isobutylsuccinyl]amino-1-methoxymethoxyethyl-3,4-dihydrocarbostyril]	9800		140	
CC(C)C[C@H](CC(=O)NO)C(=O)N[C@H]1Cc2cc3c(cc2N(C)C1=O)OCO3 [Test compound 27, 3S-[4-(N-hydroxyamino)-2R-isobutylsuccinyl]amino-1-methyl-6,7-methylenedioxy-3,4-dihydrocarbostyril]	2200		110	
CCCCC[C@H](CC(=O)NO)C(=O)N[C@H]1Cc2cc3c(cc2N(CC)C1=O)OCO3 [Test compound 29, 1-ethyl-3S-[4-(N-hydroxyamino)-2R-pentylsuccinyl]amino-6,7-methylenedioxy-3,4-dihydrocarbostyril]	200		14	
